Experimental data published in US20240361317A1, “PROBES BASED ON VOLATILE ORGANIC COMPOUNDS AND USES THEREOF FOR THE DIAGNOSIS AND PROGNOSIS OF PATHOLOGICAL CONDITIONS” (Centre National de la Recherche Scientifique, priority 2021, published 2024).

Legend:
[1] = system: α-L-fucosidase; assay: Plasma protocol: labeled ethanol released in headspace of plasma after adding probe; assay type: biochemical, human
Protocol: (§1) The plasma (approximately […]) is extracted and stored at −20° C. until analysis. An aliquot of 25 μL of plasma is sampled and inserted into a […] with an insert. This biological sample is added to 50 μL of acetate buffer solution (pH 5), protease inhibitor (1×) and 25 μL probe D5-ethyl-β-D-glucuronide at […]. After hermetic closure and agitation to the vortex of the vial, an SPME (SPME in semi-polar phase of the Car/PDMS, 1 cm long and 75 μm thick type with a 24 ga needle; Supelco) of the gas phase above the sample of a duration of 30 mi is carried out after 2 h, 4 h and 7 h of reaction. Each kinetic point requires a vial reaction, and is carried out in duplicate. The VOCs trapped on the SPME fiber are then analyzed by G-TQMS. GC-TMS detection of the ethanol isotopes (thus including ethanol-D5) is carried out with gas chromatography coupled to a triple quadrupole equipped with an E1 source (TSQ 9000, Thermo Fisher Scientific). The system is controlled by the software TSQ 9000 and the results are analyzed with the Xcalibur software (Thermo Fisher Scientific).
(§2) In order to verify the diagnostic efficacy of this cocktail, it was tested on samples of plasma taken from 4 patients suffering from breast cancer and 3 patients with lung cancer. These patients were diagnosed, but had at the time of sampling not yet received treatment suited to their pathological condition.
(§3) After adding the 4 probes (according to the above protocol), the quantity of the 4 isotopes of the ethanol released above the samples of the patients was measured over time. The responses of each isotope were compared with those obtained when the cocktail was added to plasmas of 4 healthy patients. An experimental blank was also carried out each day of analysis. These blanks correspond to negative controls wherein the cocktail was added, whereas none of the 4 enzymes was present therein (FIG. 9).
(§4) According to the plasma protocol described above, the probes were used to detect the six enzymatic activities in these samples. To summarize, an aliquot of 25 μL of plasma will be sampled and inserted into a 2 mL vial with an insert. This biological sample was added from 61.4 μL buffer solution (pH 5), 3.6 μL of protease inhibitor (1×) and 10 μL of one or the other of the cocktails. After hermetic closure and agitation to the vortex of the vial, an SPME (SPME in semi-polar phase of the Car/PDMS, 1 cm long and 75 μm thick type with a 24 ga needle, Supelco) of the gas phase above the sample of a duration of 30 min will be carried out after 2 h, 4 h and 7 h of reaction. Each kinetic point requires a vial reaction, and was carried out in duplicate. The VOCs trapped on the SPME fiber are then analyzed by GC-TQMS according to the parameters defined in Tables 4 and 5. […]

[2] = target: T1, β-glucuronidase (Homo sapiens, UniProt P08236); assay: Reference method: hydrolysis of para-nitrophenol glucuronide, UV detection at 400 nm, on patient plasma; assay type: biochemical; details: plasma of cancer and healthy patients
T1 construct: from tissue; host or cells: human blood plasma
T1 sequence (P08236 23-651): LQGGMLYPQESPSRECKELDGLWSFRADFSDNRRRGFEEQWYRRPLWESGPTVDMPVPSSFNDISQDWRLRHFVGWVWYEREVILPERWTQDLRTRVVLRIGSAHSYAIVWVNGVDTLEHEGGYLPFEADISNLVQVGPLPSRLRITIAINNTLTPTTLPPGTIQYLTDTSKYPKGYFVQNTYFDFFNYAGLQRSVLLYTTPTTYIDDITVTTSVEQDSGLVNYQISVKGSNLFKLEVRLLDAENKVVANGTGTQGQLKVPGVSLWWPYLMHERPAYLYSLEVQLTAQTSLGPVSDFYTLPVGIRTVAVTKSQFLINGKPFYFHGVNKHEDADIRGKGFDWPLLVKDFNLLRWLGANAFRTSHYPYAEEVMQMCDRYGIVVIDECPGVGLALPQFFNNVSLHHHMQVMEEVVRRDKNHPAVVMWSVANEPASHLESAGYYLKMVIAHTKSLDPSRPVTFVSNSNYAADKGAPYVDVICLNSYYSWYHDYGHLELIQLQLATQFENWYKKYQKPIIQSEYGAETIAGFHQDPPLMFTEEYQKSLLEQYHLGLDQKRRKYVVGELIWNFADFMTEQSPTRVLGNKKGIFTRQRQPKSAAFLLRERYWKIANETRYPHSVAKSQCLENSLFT
Excerpt: The limit of detection of the enzyme with the probe is between […] (signal to noise 9) and […] (signal to noise 37), which leads to a minimum quantity of detectable enzyme equal to 1.10^−18 mol. This LOD is 100 times lower than the threshold value obtained according to the reference detection method of this same enzyme (Li et al., 2018, Biotechnology Letters, 40, 11 1-118; Xiao et al., 2020, RSC Advances, 10, 22966). This method corresponds to the hydrolysis of para-nitrophenol glucuronide. It was carried out in acetate buffer […], followed by UV detection at 400 nm of the para-nitrophenol (FIG. 2).
Finally, these same plasma samples were tested with the reference method targeting […] (UV detection in the presence of para-nitrophenol; protocol described page 5).

[3] = target: T2, β-D-galactosidase (Homo sapiens, UniProt P16278); assay: Plasma protocol: labeled ethanol released in headspace of plasma after adding probe; assay type: biochemical; details: for discernment between healthy patients and cancer patients: cocktail of 4 probes, plasma of breast and lung cancer patients vs 4 healthy
T2 construct: from tissue; host or cells: human blood plasma
T2 sequence (P16278 29-677): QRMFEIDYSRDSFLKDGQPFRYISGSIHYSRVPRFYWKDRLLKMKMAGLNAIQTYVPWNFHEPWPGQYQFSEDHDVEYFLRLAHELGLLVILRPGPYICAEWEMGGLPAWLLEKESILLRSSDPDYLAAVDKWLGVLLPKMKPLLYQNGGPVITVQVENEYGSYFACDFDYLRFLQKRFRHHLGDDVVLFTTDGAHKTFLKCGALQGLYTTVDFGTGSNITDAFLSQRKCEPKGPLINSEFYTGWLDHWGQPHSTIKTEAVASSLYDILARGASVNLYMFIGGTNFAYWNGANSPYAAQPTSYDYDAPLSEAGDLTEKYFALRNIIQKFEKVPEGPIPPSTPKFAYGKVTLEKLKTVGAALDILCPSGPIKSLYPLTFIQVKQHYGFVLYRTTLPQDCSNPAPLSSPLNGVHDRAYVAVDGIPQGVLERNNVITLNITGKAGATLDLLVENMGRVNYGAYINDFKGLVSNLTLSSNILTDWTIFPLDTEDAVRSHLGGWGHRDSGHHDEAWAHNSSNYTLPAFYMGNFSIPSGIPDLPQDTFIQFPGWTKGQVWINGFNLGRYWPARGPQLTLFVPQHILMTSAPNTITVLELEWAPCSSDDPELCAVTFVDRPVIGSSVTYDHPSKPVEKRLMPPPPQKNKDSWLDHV
Protocol: as §1, §2
After adding the 4 probes (according to the above protocol), the quantity of the 4 isotopes of the ethanol released above the samples of the patients was measured over time. The responses of each isotope were compared with those obtained when the cocktail was added to plasmas of 4 healthy patients. An experimental blank was also carried out each day of analysis. […]
(§5) According to the plasma protocol described above, the probes were used to detect the six enzymatic activities in these samples. […] The VOCs trapped on the SPME fiber are then analyzed by GC-TQMS according to the parameters defined in Tables 4 and 5. […]

[4] = system: KB tumors (tumor xenograft, tumor cells of the nasopharynx KB); assay: In vivo test of cocktail of 4 probes: ethanol isotopes exhaled after i.v. injection; set-up: species or system mouse; details: 15 days after implantation; 1 h after i.v. injection
Protocol: In the context of this study, the quantity of 4 expired isotopes by mouse models carrying a tumor xenograft (tumor cells of the nasopharynx KB; n=6) was compared to that exhaled by healthy animals (n=6) after i.v. injection of the cocktail.
The concentration of the 4 probes to be injected was determined beforehand according to a precise experimental plan having the objective of determining the amount of each probe inducing a minimum ethanol response in healthy animals (signal reaching a low or even zero basal level). In this context, the healthy animals received increasing doses of the 4 probes ([…] at 100 μg·kg^−1). The animals were then placed in a hermetic cage for 1 h. The amount of each ethanol isotope present in the breath of the animals was then measured for 30 min via an SPME sample, then a GC-TQMS analysis.
Once the i.v. doses are set, the cocktail was injected into healthy mice and diseased mice after 12 and then 15 days of implantation of the xenograft. The amount of the ethanol isotopes exhaled by the animals was measured 1 h after injection of the cocktail (FIG. 10). A negative control on two mice (healthy and diseased) was carried out. This control consisted of measuring the quantity of 4 isotopes of ethanol in the air surrounding the mice which had not received the cocktail. Ethanol-D5, ethanol-D4 and ethanol-^13CD5 were not detected. […]

[5] = system: N-acetyl-glucosaminidase; assay: Plasma protocol: labeled ethanol released in headspace of plasma after adding probe; assay type: biochemical, human
Protocol: as §1, §2, §3, §4

[6] = system: N-acetyl glucosaminidase; assay: Specificity study: hydrolysis of probes by the enzyme; assay type: biochemical
Protocol: (§6) The detection performances of this compound in the presence of ethanol and ethanol-D5 were then verified. […] The detection ranges of ethanol-D5 and ethanol-^13C-D5 were then carried out under SPME sampling conditions developed for biological samples (30 min of sampling at 30° C.). The two isotopes were present in mixtures in solution. The limits of detection obtained are respectively […]. The SPME-GC-TQMS method therefore allows a sharp differentiation of the two isotopes according to their mass fragmentation. An experimental study was then carried out in order to evaluate the affinity of the D5-ethyl-β-D-glucuronide and ^13C-D5-ethyl-N-acetylglucosamine for their respective enzyme (β-glucuronidase and N-acetyl glucosaminidase). For this, the efficacy of hydrolysis of each of these enzymes was studied in the presence of their respective probe (FIG. 6) then in the presence of the substrate probe of its partner (FIG. 7). […] In the presence of the two substrates, each enzyme gives a signal only for the probe specific to it (FIG. 8).

[7] = target: β-glucuronidase (Escherichia coli, UniProt P05804); assay: as above; assay type: biochemical
Protocol: as §6

[8] = target: T1, β-glucuronidase; assay: Plasma protocol: labeled ethanol released in headspace of plasma after adding probe; assay type: biochemical; details: Ethanol-D5; Cocktail 1; 5·10^−4/5·10^−5 mol·L^−1; Splitless
Protocol: as §1
Blood samples were taken by the caregiver associated with the oncological service, then collected and pretreated with the CIC. This study included samples of plasma taken from 11 patients suffering from breast cancer and 11 patients suffering from lung cancer.
These patients were diagnosed, but had at the time of sampling not yet received treatment. Their response was compared to that obtained from the plasma of 4 healthy patients. The results were compared to an experimental blank wherein the probe was added, but the enzyme was not present (FIG. 3). […]
After adding the 4 probes (according to the above protocol), the quantity of the 4 isotopes of the ethanol released above the samples of the patients was measured over time. […]
as §5

Sequence of β-glucuronidase (Escherichia coli, UniProt P05804) (P05804 whole entry): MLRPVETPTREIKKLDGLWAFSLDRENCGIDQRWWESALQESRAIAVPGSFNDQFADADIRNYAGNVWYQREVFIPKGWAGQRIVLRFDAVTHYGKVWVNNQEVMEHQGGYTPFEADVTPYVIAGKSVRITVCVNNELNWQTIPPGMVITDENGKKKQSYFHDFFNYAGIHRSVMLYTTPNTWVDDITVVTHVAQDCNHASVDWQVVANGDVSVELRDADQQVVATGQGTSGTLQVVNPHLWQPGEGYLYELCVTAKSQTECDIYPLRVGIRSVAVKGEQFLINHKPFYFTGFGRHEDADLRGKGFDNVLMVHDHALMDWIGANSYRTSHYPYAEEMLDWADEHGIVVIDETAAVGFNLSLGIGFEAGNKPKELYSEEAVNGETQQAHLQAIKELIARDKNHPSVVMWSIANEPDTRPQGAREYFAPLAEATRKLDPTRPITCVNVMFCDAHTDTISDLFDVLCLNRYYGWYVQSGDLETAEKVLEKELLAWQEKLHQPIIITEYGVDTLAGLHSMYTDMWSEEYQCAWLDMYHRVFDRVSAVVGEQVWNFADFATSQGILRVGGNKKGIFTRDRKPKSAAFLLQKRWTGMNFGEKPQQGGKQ

[2H]C(O[C@@H]1O[C@@H](C)[C@@H](O)[C@@H](O)[C@@H]1O)C([2H])([2H])[2H] (stereo partly drawn) [D4-ethyl-1-α-L-fucopyranoside]
discernment between healthy patients and cancer patients ([1]; cocktail of 4 probes, plasma of breast and lung cancer patients vs healthy): allow clear discernment between healthy patients and cancer patients

O=C(O)[C@H]1O[C@@H](Oc2ccc([N+](=O)[O-])cc2)[C@H](O)[C@@H](O)[C@@H]1O [para-nitrophenol glucuronide]
detection of the enzyme in the same plasma samples by the reference method [2]: not detected in any of the samples

[2H]C([2H])(C)O[C@@H]1O[C@H](CO)[C@H](O)[C@H](O)[C@H]1O [D2-ethyl-β-D-galactopyranoside]
discernment between healthy patients and cancer patients [3]: does not make it possible to discern healthy patients from cancer patients
discernment between healthy patients and cancer patients ([3]; listed as D2-ethyl-β-d-galactopyranoside): does not make it possible to differentiate healthy patients from breast cancer or lung cancer patients
activation of probe in the microenvironment of KB (nasopharyngeal) tumors, release of ethanol isotope in exhaled air [4]: activated

C=C(C)C[C@@H]1[C@@H](CCC)C[C@H](CC)[C@@H](C)[C@@H]1C
Plasma response range (u.a.) ([5]; Ethanol-13CD5, Cocktail 2, 10^−3/10^−4 mol·L^−1, Split 1:15): 10000-300000 u.a.

CCC[C@@H]1C[C@H](CC)[C@H](C)[C@H](C)[C@H]1C
Plasma response range (u.a.) ([3]; Ethanol-D2, Cocktail 1, 10^−3/10^−4 mol·L^−1, Splitless): 2000-16000 u.a.

^13C-D5-ethyl-N-acetylglucosamide [^13C-D5-ethyl-N-acetylglucosamine]
discernment between healthy patients and cancer patients ([5]; cocktail of 4 probes, plasma of breast and lung cancer patients vs 4 healthy): allow clear discernment between healthy patients and cancer patients
hydrolysis of probe by N-acetyl glucosaminidase (labeled ethanol signal) [6]: has hydrolyzed its own probe
hydrolysis of probe by β-glucuronidase (labeled ethanol signal) [7]: does not hydrolysis

CCC[C@@H]1C[C@H](C)[C@@H](C)[C@@H](C)[C@@H]1C
Plasma response range (u.a.) ([1]; Ethanol-D4, Cocktail 3, 10^−3/10^−4 mol·L^−1, Splitless): 5000-230000 u.a.

CCC[C@@H]1C[C@H](C(C)C)[C@@H](C)[C@H](C)[C@H]1C
Plasma response range (u.a.) [8]: 1000-35000 u.a.
